Measurements from ChEMBL document CHEMBL1153187 (Bioorg Med Chem Lett, 2010).

Assays:
[1] = Toxicity against BALB/c mouse macrophage by MTT assay; format: cell-based; details: mouse macrophages
[2] = Selectivity index, ratio of IC50 for BALB/c macrophages to IC50 for Leishmania amazonensis (MHOM/BR/76/LTB-012)
Leishmania amazonensis [3] = assay: Antileishmanial activity against Leishmania amazonensis MHOM/BR/76/LTB-012 axenic amastigotes by MTT assay
Leishmania braziliensis = assay: Antileishmanial activity against Leishmania braziliensis MHOM/PE/PER006 promastigotes infected in mouse macrophage by MTT assay; format: functional, organism-based
Leishmania peruviana = assay: Antileishmanial activity against Leishmania peruviana MHOM/PE/LCA08 promastigotes infected in mouse macrophage by MTT assay; format: functional, organism-based
Leishmania amazonensis [4] = assay: Antileishmanial activity against Leishmania amazonensis LMA CL1 amastigotes infected in mouse macrophage by MTT assay; format: functional, organism-based
Leishmania amazonensis [5] = assay: Antileishmanial activity against Leishmania amazonensis LV79 MPRO/BR/72/M1841 infected in BALB/c mouse assessed as lesion diameter at 5 mg/kg after 4 weeks; format: functional
Leishmania amazonensis [6] = assay: Antileishmanial activity against Leishmania amazonensis LV79 MPRO/BR/72/M1841 infected in BALB/c mouse assessed as reduction in parasite burden at 5 mg/kg after 4 weeks; format: functional; set-up: scale not given: the % may be the effect or the level left
Leishmania amazonensis [7] = assay: Antileishmanial activity against Leishmania amazonensis LV79 MPRO/BR/72/M1841 infected in BALB/c mouse assessed as reduction in parasite burden at 5 mg/kg after 6 weeks; format: functional; set-up: scale not given: the % may be the effect or the level left
Leishmania amazonensis [8] = assay: Antileishmanial activity against Leishmania amazonensis LV79 MPRO/BR/72/M1841 infected in BALB/c mouse assessed as lesion diameter at 33 mg/kg after 4 weeks; format: functional, organism-based; set-up: dose 33 mg/kg
Leishmania amazonensis [9] = assay: Antileishmanial activity against Leishmania amazonensis LV79 MPRO/BR/72/M1841 infected in BALB/c mouse assessed as reduction in parasite burden at 33 mg/kg after 4 weeks; format: functional, organism-based; set-up: dose 33 mg/kg; scale not given: the % may be the effect or the level left
Leishmania amazonensis [10] = assay: Antileishmanial activity against Leishmania amazonensis LV79 MPRO/BR/72/M1841 infected in BALB/c mouse assessed as reduction in parasite burden at 33 mg/kg after 7 weeks; format: functional, organism-based; set-up: dose 33 mg/kg; scale not given: the % may be the effect or the level left

| Compound | IC50 [1] | Ratio IC50 [2] | IC50 (Leishmania amazonensis [3]) | further results |
| --- | --- | --- | --- | --- |
| C=CCOc1cc(OC)c(C(=O)/C=C/c2ccccc2Br)c(OCC=C)c1 | 5.4 µM | 0.7 | 7.9 µM | – |
| C=CCOc1cc(OC)c(C(=O)/C=C/c2ccc(Cl)cc2)c(OCC=C)c1 | 13 µM | 1.4 | 9.4 µM | – |
| C=CCOc1cc(OC)c(C(=O)/C=C/c2cccc(OC)c2)c(OCC=C)c1 | 13.1 µM | 1.5 | 8.7 µM | – |
| C[C@@H]1[C@H](O)[C@@H](C)/C=C/C=C/C=C/C=C/C=C/C=C/C=C/[C@H](O[C@@H]2O[C@H](C)[C@@H](O)[C@H](N)[C@@H]2O)C[C@@H]2O[C@](O)(C[C@@H](O)C[C@@H](O)[C@H](O)CC[C@@H](O)C[C@@H](O)CC(=O)O[C@H]1C)C[C@H](O)[C@H]2C(=O)O [AMPHOTERICIN B] | 5.3 µM | 76 | 0.1 µM | IC50 (Leishmania braziliensis): 0.1 µM; IC50 (Leishmania peruviana): 0.1 µM; IC50 (Leishmania amazonensis [4]): 0.4 µM |
| COc1cc(O)cc(O)c1C(=O)/C=C/c1ccc(Cl)cc1 | 19 µM | 1.7 | 11.2 µM | – |
| C=CCOc1cc(OC)c(C(=O)/C=C/c2ccc3c(c2)OCO3)c(OCC=C)c1 | – | – | 6.6 µM | – |
| C=CCOc1cc(OC)c(C(=O)/C=C/c2cc(OC)c(OC)c(OC)c2)c(OCC=C)c1 | 12 µM | 1.5 | 8.2 µM | – |
| C=CCOc1cc(OC)c(C(=O)/C=C/c2ccccc2F)c(OCC=C)c1 | 13.3 µM | 1.4 | 9.5 µM | – |
| COc1cc(O)cc(O)c1C(=O)/C=C/c1ccc(C)cc1 | 16.5 µM | 2.2 | 7.4 µM | – |
| C=CCOc1cc(/C=C/C(=O)c2c(O)cc(O)cc2OC)cc(OCC=C)c1Br | 11.5 µM | 10.5 | 1.1 µM | IC50 (Leishmania braziliensis): 14.4 µM; IC50 (Leishmania amazonensis [4]): 4.1 µM; Activity (Leishmania amazonensis [5]): 3.1 mm; Activity (Leishmania amazonensis [6]): 9%; Activity (Leishmania amazonensis [7]): 8% |
| C=CCOc1cc(OC)c(C(=O)/C=C/c2ccc(C)cc2)c(OCC=C)c1 | – | – | 79.8 µM | – |
| COc1ccc(/C=C/C(=O)c2c(O)cc(O)cc2OC)c(OC)c1 | > 300 µM | >50 | 6.4 µM | IC50 (Leishmania amazonensis [4]): 28.5 µM |
| COc1cc(O)cc(O)c1C(=O)/C=C/c1ccco1 | 384 µM | 83.5 | 4.6 µM | IC50 (Leishmania braziliensis): 30.4 µM; IC50 (Leishmania peruviana): 34.2 µM; IC50 (Leishmania amazonensis [4]): 16.9 µM |
| C=CCOc1cc(OC)c(C(=O)/C=C/c2ccc[nH]2)c(OCC=C)c1 | – | – | 94.3 µM | – |
| COc1cc(O)cc(O)c1C(=O)/C=C/c1ccc(F)cc1 | 28.8 µM | 2.4 | 11.8 µM | – |
| COc1cc(O)cc(O)c1C(=O)/C=C/C=C/c1ccccc1 | – | – | 52.6 µM | – |
| COc1cc(O)cc(O)c1C(=O)/C=C/c1ccc(C(F)(F)F)cc1 | 17.1 µM | 2 | 8.6 µM | – |
| COc1ccc(/C=C/C(=O)c2c(O)cc(OC)cc2OC)cc1 [FLAVOKAWAIN A] | – | – | 17.2 µM | – |

| Compound | IC50 [1] | Ratio IC50 [2] | IC50 (Leishmania amazonensis [3]) | further results |
| --- | --- | --- | --- | --- |
| C=CCOc1cc(OC)c(C(=O)/C=C/c2ccncc2)c(OCC=C)c1 | – | – | 0.6 µM | – |
| COc1cc(O)cc(O)c1C(=O)/C=C/c1ccccc1Br | 14.6 µM | 1.4 | 10.6 µM | – |
| C=CCOc1cc(OC)c(C(=O)/C=C/c2ccc(O)cc2)c(OCC=C)c1 | – | – | 85.2 µM | – |
| COc1cc(O)cc(O)c1C(=O)/C=C/c1ccccc1F | 16 µM | 1.4 | 11.8 µM | – |
| COc1cc(/C=C/C(=O)c2c(O)cc(O)cc2OC)ccc1O | – | – | 14.9 µM | – |
| C=CCOc1cc(OC)c(C(=O)/C=C/c2ccc(OC)cc2)c(OCC=C)c1 | 18.7 µM | 3.4 | 5.5 µM | – |
| C=CCOc1cc(OC)c(C(=O)/C=C/c2ccccn2)c(OCC=C)c1 | 12.5 µM | 11.4 | 1.1 µM | IC50 (Leishmania braziliensis): 1.4 µM; IC50 (Leishmania peruviana): 4 µM; IC50 (Leishmania amazonensis [4]): 0.9 µM; Activity (Leishmania amazonensis [5]): 3 mm; Activity (Leishmania amazonensis [7]): 25% |
| C=CCOc1cc(OC)c(C(=O)/C=C/c2ccc(F)cc2)c(OCC=C)c1 | 13.8 µM | 1.5 | 9.5 µM | – |
| C=CCOc1cc(OC)c(C(=O)/C=C/c2ccc([N+](=O)[O-])cc2)c(OCC=C)c1 | 13.2 µM | 1.6 | 8.3 µM | – |
| COc1cc(O)cc(O)c1C(=O)/C=C/c1ccc2c(c1)OCO2 | 157 µM | 38.3 | 4.1 µM | IC50 (Leishmania braziliensis): 8.6 µM; IC50 (Leishmania peruviana): 19.7 µM; IC50 (Leishmania amazonensis [4]): 16.6 µM |
| C=CCOc1cc(OC)c(C(=O)/C=C/c2ccc(O)c(OC)c2)c(OCC=C)c1 | – | – | 107 µM | – |
| COc1cccc(/C=C/C(=O)c2c(O)cc(O)cc2OC)c1 | 17.6 µM | 1.5 | 12 µM | – |
| COc1cc(/C=C/C(=O)c2c(O)cc(O)cc2OC)cc(OC)c1OC | – | – | 9.7 µM | – |
| COc1cc(O)cc(O)c1C(=O)/C=C/c1ccc(O)cc1 [HELICHRYSETIN] | 21.7 µM | 1.4 | 15.7 µM | – |
| COc1ccc(/C=C/C(=O)c2c(O)cc(O)cc2OC)cc1 | 166 µM | 16.6 | 10 µM | IC50 (Leishmania braziliensis): 7.6 µM; IC50 (Leishmania peruviana): 23 µM; IC50 (Leishmania amazonensis [4]): 14.3 µM |
| MEGLUMINE ANTIMONATE | – | – | – | Activity (Leishmania amazonensis [8]): 2.1 mm; Activity (Leishmania amazonensis [9]): 100%; Activity (Leishmania amazonensis [10]): 100% |
| C=CCOc1cc(OC)c(C(=O)/C=C/C=C/c2ccccc2)c(OCC=C)c1 | – | – | 75.2 µM | – |
